Measurements reported in US9133158B2, “Bicyclic dihydroisoquinoline-1-one derivatives” (Hoffmann-La Roche Inc., priority 2011, dated 2015).

Molecular target: T1, human CYP11B2 (Homo sapiens, UniProt P19099)
T1 construct: expressed in transfected cells
T1 sequence (P19099 25-503): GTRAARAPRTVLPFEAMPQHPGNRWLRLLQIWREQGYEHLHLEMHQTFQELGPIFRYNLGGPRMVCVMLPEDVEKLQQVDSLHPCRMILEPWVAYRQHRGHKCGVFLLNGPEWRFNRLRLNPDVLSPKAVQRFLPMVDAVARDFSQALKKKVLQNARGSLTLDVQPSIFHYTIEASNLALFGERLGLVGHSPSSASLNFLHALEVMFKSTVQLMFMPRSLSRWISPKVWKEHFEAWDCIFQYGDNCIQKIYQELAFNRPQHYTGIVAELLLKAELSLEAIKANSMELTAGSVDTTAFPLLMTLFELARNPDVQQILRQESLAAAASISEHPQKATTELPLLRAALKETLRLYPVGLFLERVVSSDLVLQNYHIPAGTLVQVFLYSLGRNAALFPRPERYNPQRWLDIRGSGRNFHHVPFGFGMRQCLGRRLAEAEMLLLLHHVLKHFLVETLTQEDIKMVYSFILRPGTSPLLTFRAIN
Experiment: G-402 cellular enzyme assay, human CYP11B2 (aldosterone release, HTRF)
Type: cell-based
Settings: G-402 cells, 1 μM Deoxycorticosterone
Text: Herein we identified the use of the G-402 cell line as a host cell to ectopically express (transiently or stably) enzymes of the CYP11 family. Specifically we developed stable G-402 cells expressing ectopically human CYP11B1, human CYP11B2, human CYP11A1, cynmolgus CYP11B1 or cynomolgus CYP11B2 enzyme activity. Importantly the identified cell line G-402 expresses co-factors (adrenodoxin and adrenodoxin reductase) important for the activity of the CYP11 family and no relevant enzyme activity of the CYP11 family (in comparison to H295R cells) was detected in these cells. Therefore the G-402 cell line is uniquely suited as a host cell for the ectopic expression of enzymes from the CYP11 family.
G-402 cells can be obtained from ATCC(CRL-1440) and were originally derived from a renal leiomyoblastoma.
The expression plasmids contain the ORF for either human/cyno CYP11B1 or CYP11B2 under the control of a suitable promoter (CMV-promoter) and a suitable resistance marker (neomycin). Using standard techniques the expression plasmid is transfected into G-402 cells and these cells are then selected for expressing the given resistance markers. Individual cell-clones are then selected and assessed for displaying the desired enzymatic activity using 11-Deoxycorticosterone (Cyp11B2) or 11-Deoxycortisol (Cyp11B1) as a substrate.
G-402 cells expressing CYP11 constructs were established as described above and maintained in McCoy's 5a Medium Modified, ATCC Catalog No. 30-2007 containing 10% FCS and 400 μg/ml G418 (Geneticin) at 37° C. under an atmosphere of 5% CO2/95% air.
Cellular enzyme assays were performed in DMEM/F12 medium containing 2.5% charcoal treated FCS and appropriate concentration of substrate (0.3-10 uM 11-Deoxycorticosterone, 11-Deoxycortisol or Corticosterone). For assaying enzymatic activity, cells were plated onto 96 well plates and incubated for 16 h. An aliquot of the supernatant is then transferred and analyzed for the concentration of the expected product (Aldosterone for CYP11B2; Cortisol for CYP11B1). The concentrations of these steroids can be determined using HTRF assays from CisBio analyzing either Aldosterone or Cortisol.
Inhibition of the release of produced steroids can be used as a measure of the respective enzyme inhibition by test compounds added during the cellular enzyme assay. The dose dependent inhibition of enzymatic activity by a compound is calculated by means of plotting added inhibitor concentrations (x-axes) vs. measured steroid/product level (y-axes). The inhibition is then calculated by fitting the following 4-parameter sigmoidal function (Morgan-Mercer-Flodin (MMF) model) to the raw data points using the least squares method:
[formula] wherein, A is the maximum y value, B is the EC50 factor determined using XLFit, C is the minimum y value and D is the slope value.
EC50 values for compounds claimed herein were tested with the G402-based assay system described. Cyp11B2 enzyme activity was tested in presence of 1 μM Deoxycorticosterone and variable amounts of inhibitors; Cyp11B1 enzyme activity was tested in presence of 1 μM Deoxycortisol and variable amounts of inhibitors.

SMILES	EC50 [nM]
CC(=O)NC1CCCc2c1cncc2N1CCc2cc(Cl)ccc2C1=O (single isomer, unassigned) [Example 320, N-((R or S)-6-Chloro-1-oxo-3,4,5′,6′,7′,8′-hexahydro-1H-[2,4′]biisoquinolinyl-8′-yl)-acetamide]	8030
CS(=O)(=O)NC1CCCc2c1cncc2N1CCc2cc(Cl)ccc2C1=O (single isomer, unassigned) [Example 324, N-((S or R)-6-Chloro-1-oxo-3,4,5′,6′,7′,8′-hexahydro-1H-[2,4′]biisoquinolinyl-8′-yl)-methanesulfonamide]	2810
CC(=O)NC1CCc2c1cncc2N1Cc2cc(Cl)ccc2C1=O (single isomer, unassigned; (-)) [Example 318, (−)-N—[(S or R)-4-(5-Chloro-1-oxo-1,3-dihydro-isoindol-2-yl)-6,7-dihydro-5H-[2]pyrindin-7-yl]-acetamide]	> 30000
CCS(=O)(=O)NCc1cncc(N2CCc3cc(Cl)ccc3C2=O)c1 [Example 25, Ethanesulfonic acid [5-(6-chloro-1-oxo-3,4-dihydro-1H-isoquinolin-2-yl)-pyridin-3-ylmethyl]-amide]	401
CNC(=O)c1cncc(N2CCc3cc(Cl)ccc3C2=O)c1 [Example 43, 5-(6-Chloro-1-oxo-3,4-dihydro-1H-isoquinolin-2-yl)-N-methyl-nicotinamide]	372
O=C(Nc1ccc(F)cc1)c1cncc(N2CCc3cc(Cl)ccc3C2=O)c1 [Example 45, 5-(6-Chloro-1-oxo-3,4-dihydro-1H-isoquinolin-2-yl)-N-(4-fluoro-phenyl)-nicotinamide]	295
O=C1c2ccc(Cl)cc2CCN1c1cncc(N2C(=O)CC[C@H]2CO)c1 [Example 50, 6-Chloro-2-[5-((S)-2-hydroxymethyl-5-oxo-pyrrolidin-1-yl)-pyridin-3-yl]-3,4-dihydro-2H-isoquinolin-1-one]	1500
O=C1c2ccc(Cl)cc2CCN1c1cncnc1 [Example 51, 6-Chloro-2-pyrimidin-5-yl-3,4-dihydro-2H-isoquinolin-1-one]	2680
O=c1c2ccc(Cl)cc2ccn1-c1cncc(F)c1 [Example 54, 6-Chloro-2-(5-fluoro-pyridin-3-yl)-2H-isoquinolin-1-one]	212
Cn1cnnc1-c1cncc(N2CCc3cc(Cl)ccc3C2=O)c1 [Example 58, 6-Chloro-2-[5-(4-methyl-4H-[1,2,4]triazol-3-yl)-pyridin-3-yl]-3,4-dihydro-2H-isoquinolin-1-one]	2060
COC(OC)c1ccncc1N1CCc2cc(Cl)ccc2C1=O [Example 61, 6-Chloro-2-(4-dimethoxymethyl-pyridin-3-yl)-3,4-dihydro-2H-isoquinolin-1-one]	2830
CC(O)c1c(F)cncc1N1CCc2cc(Cl)ccc2C1=O (stereo not drawn) [Example 62, 6-Chloro-2-[5-fluoro-4-(l-hydroxy-ethyl)-pyridin-3-yl]-3,4-dihydro-2H-isoquinolin-1-one]	935
N#Cc1ccncc1N1CCc2cc(Cl)ccc2C1=O [Example 74, 3-(6-Chloro-1-oxo-3,4-dihydro-1H-isoquinolin-2-yl)-isonicotinonitrile]	449
CC1Cc2cc(Cl)ccc2C(=O)N1c1cccnc1 (stereo not drawn) [Example 88, 6-Chloro-3-methyl-2-pyridin-3-yl-3,4-dihydro-2H-isoquinolin-1-one]	761
CC1Cc2cc(Cl)ccc2C(=O)N1c1cncnc1 (stereo not drawn) [Example 90, 6-Chloro-3-methyl-2-pyrimidin-5-yl-3,4-dihydro-2H-isoquinolin-1-one]	1230
C[C@@H]1Cc2cc(Cl)ccc2C(=O)N1c1cccnc1 [Example 91, (R)-6-Chloro-3-methyl-2-pyridin-3-yl-3,4-dihydro-2H-isoquinolin-1-one]	395

The next lines start with the values.

EC50 [nM]	SMILES
> 30000	CS(=O)(=O)NC1CCc2c1cncc2N1CCc2cc(Cl)ccc2C1=O (single isomer, unassigned) [Example 330, N-[(S or R)-4-(6-Chloro-1-oxo-3,4-dihydro-1H-isoquinolin-2-yl)-6,7-dihydro-5H-[2]pyrindin-7-yl]-methanesulfonamide]
14800	CC(=O)NC1CCc2c1cncc2N1CCc2cc(Cl)ccc2C1=O (single isomer, unassigned) [Example 332, N-[(R or S)-4-(6-Chloro-1-oxo-3,4-dihydro-1H-isoquinolin-2-yl)-6,7-dihydro-5H-[2]pyrindin-7-yl]-acetamide]
13800	CS(=O)(=O)NC1CCc2c1cncc2N1Cc2cc(Cl)ccc2C1=O (single isomer, unassigned) [Example 335, N-[(S or R)-4-(5-Chloro-1-oxo-1,3-dihydro-isoindol-2-yl)-6,7-dihydro-5H-[2]pyrindin-7-yl]-methanesulfonamide]
24300	CCS(=O)(=O)NC1CCc2c1cncc2N1Cc2cc(Cl)ccc2C1=O (single isomer, unassigned) [Example 337, Ethanesulfonic acid [(S or R)-4-(5-chloro-1-oxo-1,3-dihydro-isoindol-2-yl)-6,7-dihydro-5H-[2]pyrindin-7-yl]-amide]
> 30000	CCC(=O)NC1CCc2c1cncc2N1Cc2cc(Cl)ccc2C1=O (single isomer, unassigned) [Example 338, N-[(S or R)-4-(5-Chloro-1-oxo-1,3-dihydro-isoindol-2-yl)-6,7-dihydro-5H-[2]pyrindin-7-yl]-propionamide]
3660	CCC(=O)N[C@H]1CCCc2c1cncc2N1C(=O)c2ccc(Cl)cc2[C@@H]1CC (single isomer, unassigned) [Example 351, N-[(S or R)-4-((S or R)-5-Chloro-3-ethyl-1-oxo-1,3-dihydro-isoindol-2-yl)-5,6,7,8-tetrahydro-isoquinolin-8-yl]-propionamide]
195	CC[C@H]1c2cc(Cl)ccc2C(=O)N1c1cncc2c1CC[C@@H]2NS(C)(=O)=O (single isomer, unassigned) [Example 370, N-[(S or R)-4-((S or R)-5-Chloro-3-ethyl-1-oxo-1,3-dihydro-isoindol-2-yl)-6,7-dihydro-5H-[2]pyrindin-7-yl]-methanesulfonamide]
4260	CC(=O)N[C@H]1CCCc2c1cncc2N1C(=O)c2ccc(Cl)cc2[C@@H]1C1CC1 (single isomer, unassigned) [Example 371, N-[(S or R)-4-((S or R)-5-Chloro-3-cyclopropyl-1-oxo-1,3-dihydro-isoindol-2-yl)-5,6,7,8-tetrahydro-isoquinolin-8-yl]-acetamide]
> 30000	CC(=O)N[C@H]1CCCc2c1cncc2N1C(=O)c2ccc(Cl)cc2[C@H]1C1CC1 (single isomer, unassigned) [Example 373, N-[(S or R)-4-((R or S)-5-Chloro-3-cyclopropyl-1-oxo-1,3-dihydro-isoindol-2-yl)-5,6,7,8-tetrahydro-isoquinolin-8-yl]-acetamide]
354	CC(=O)N[C@@H]1CCCc2c1cncc2N1C(=O)c2ccc(Cl)cc2[C@@H]1C1CC1 (single isomer, unassigned) [Example 374, N-[(R or S)-4-((S or R)-5-Chloro-3-cyclopropyl-1-oxo-1,3-dihydro-isoindol-2-yl)-5,6,7,8-tetrahydro-isoquinolin-8-yl]-acetamide]
5620	CCC(=O)N[C@@H]1CCc2c1cncc2N1C(=O)c2ccc(Cl)cc2[C@@H]1C (single isomer, unassigned) [Example 375, N-[(R or S)-4-((S or R)-5-Chloro-3-methyl-1-oxo-1,3-dihydro-isoindol-2-yl)-6,7-dihydro-5H-[2]pyrindin-7-yl]-propionamide]
